Measured values as given in patent US20080051418A1, “Arylalkanoic Acid Derivative” (priority 2004, published 2008).

| SMILES | melting point |
| --- | --- |
| CCc1cccc(CC(=O)O)c1OCCCn1cc(C(=O)NCc2ccc(C(F)(F)F)cc2)c(OC(C)C)n1 [Example 186, (3-ethyl-2-{3-[3-isopropoxy-4-({[4-(trifluoromethyl)benzyl]amino}carbonyl)-1H-pyrazol-1-yl]propoxy}phenyl)acetic acid] | 107.5 to 108.5 °C |
| COc1cccc(CC(=O)O)c1OCCCc1cc(OC(C)C)nn1Cc1c(F)cccc1Cl [Example 67, (2-{3-[1-(2-chloro-6-fluorobenzyl)-3-isopropoxy-1H-pyrazol-5-yl]propoxy}-3-methoxyphenyl)acetic acid] | 97 to 98 °C |
| CC(C)Oc1ccc(CCCOc2cc(CCC(=O)O)n(C)n2)c(Oc2ncc(Cl)cc2Cl)c1 [Example 140, 3-[3-(3-{2-[(3,5-dichloropyridin-2-yl)oxy]-4-isopropoxyphenyl}propoxy)-1-methyl-1H-pyrazol-5-yl]propanoic acid] | 77 to 78 °C |
| CCOc1cc(Cl)ccc1Cn1nc(OC(C)C)cc1CCCOc1c(CC(=O)O)cccc1OC [Example 69, (2-{3-[1-(4-chloro-2-ethoxybenzyl)-3-isopropoxy-1H-pyrazol-5-yl]propoxy}-3-methoxyphenyl)acetic acid] | 98 to 99 °C |
| COCCOc1cc(Oc2ccc(C(F)(F)F)cn2)ccc1CCCOc1cc(CCC(=O)O)n(C)n1 [Example 154, 3-{3-[3-(2-(2-methoxyethoxy)-4-{[5-(trifluoromethyl)pyridin-2-yl]oxy}phenyl)propoxy]-1-methyl-1H-pyrazol-5-yl}propanoic acid] | 109.5 to 110.5 °C |
| CC(C)Oc1cc(CCCOc2c(CC(=O)O)ccc3ccccc23)n(Cc2ccc(Cl)cc2Cl)n1 [Example 87, (1-{3-[1-(2,4-dichlorobenzyl)-3-isopropoxy-1H-pyrazol-5-yl]propoxy}-2-naphthyl)acetic acid] | 96 to 98 °C |
| CCOc1cc(C(=O)c2ccccn2)ccc1OCCOc1c(CC(=O)O)cccc1OC [Example 123, (2-{2-[2-ethoxy-4-(pyridin-2-ylcarbonyl)phenoxy]ethoxy}-3-methoxyphenyl)acetic acid] | 184 to 186 °C |
| CC(C)Oc1cc(CCCOc2cc(CCC(=O)O)n(-c3ccccc3)n2)n(Cc2ccc(Cl)cc2Cl)n1 [Example 192, 3-(3-{3-[1-(2,4-dichlorobenzyl)-3-isopropoxy-1H-pyrazol-5-yl]propoxy}-1-phenyl-1H-pyrazol-5-yl)propanoic acid] | 145.5 to 147.5 °C |
| COc1cccc(CC(=O)O)c1OCc1cc(OC(C)C)nn1Cc1ccc(Cl)cc1Cl [Example 50, (2-{[1-(2,4-dichlorobenzyl)-3-isopropoxy-1H-pyrazol-5-yl]methoxy}-3-methoxyphenyl)acetic acid] | 127 to 128 °C |
| CCc1cccc(CC(=O)O)c1OCCCc1cc(OC(C)C)nn1Cc1ccc(Cl)cc1Cl [Example 29, (2-{3-[1-(2,4-dichlorobenzyl)-3-isopropoxy-1H-pyrazol-5-yl]propoxy}-3-ethylphenyl)acetic acid] | 98 to 99 °C |
| CCOc1nn(Cc2ccc(Cl)cc2Cl)cc1CCCOc1cc(CCC(=O)O)n(-c2ccccc2)n1 [Example 183, 3-(3-{3-[1-(2,4-dichlorobenzyl)-3-ethoxy-1H-pyrazol-4-yl]propoxy}-1-phenyl-1H-pyrazol-5-yl)propanoic acid] | 132 to 133 °C |
| COc1cc(CCCOc2c(CC(=O)O)cccc2OC)n(Cc2ccc(Cl)cc2Cl)n1 [Example 28, (2-{3-[1-(2,4-dichlorobenzyl)-3-methoxy-1H-pyrazol-5-yl]propoxy}-3-methoxyphenyl)acetic acid] | 111 to 112 °C |
| CC(C)Oc1ccc(CCCOc2nn(Cc3ccccc3)cc2CC(=O)O)c(OCc2ccc(Cl)cc2Cl)c1 [Example 175, [1-benzyl-3-(3-{2-[(2,4-dichlorobenzyl)oxy]-4-isopropoxyphenyl}propoxy)-1H-pyrazol-4-yl]acetic acid] | 103 to 104 °C |
| CC(C)Oc1cc(CCCOc2cc(CCC(=O)O)n(C)n2)cc(COc2ccc(Cl)cc2Cl)c1 [Example 197, 3-[3-(3-{3-[(2,4-dichlorophenoxy)methyl]-5-isopropoxyphenyl}propoxy)-1-methyl-1H-pyrazol-5-yl]propanoic acid] | 116 to 120 °C |
| Cc1cccc(CC(=O)O)c1OCCCc1cc(OC(C)C)nn1Cc1ccc(Cl)cc1Cl [Example 24, (2-{3-[1-(2,4-dichlorobenzyl) -3-isopropoxy-1H-pyrazol-5-yl]propoxy}-3-methylphenyl)acetic acid] | 70 to 71 °C |
| CC(C)Oc1cc(COc2cc(CCC(=O)O)n(C)n2)cc(COc2ccc(Cl)cc2Cl)c1 [Example 194, 3-[3-({3-[(2,4-dichlorophenoxy)methyl]-5-isopropoxybenzyl}oxy)-1-methyl-1H-pyrazol-5-yl]propanoic acid] | 105 to 106 °C |
| CC(C)Oc1ccc(CCCOc2cc(CCC(=O)O)n(C)n2)c(OCc2ccc(Cl)cc2Cl)c1 [Example 161, 3-[3-(3-{2-[(2,4-dichlorobenzyl)oxy]-4-isopropoxyphenyl}propoxy) 1-methyl-1H-pyrazol-5-yl]propanoic acid] | 125 to 127 °C |

| SMILES | melting point |
| --- | --- |
| CCn1nc(OCCCc2ccc(OC(C)C)cc2OCc2ccc(C(F)(F)F)cc2)cc1CCC(=O)O [Example 168, 3-{1-ethyl-3-[3-(4-isopropoxy-2-{[4-(trifluoromethyl)benzyl]oxy}phenyl)propoxy]-1H-pyrazol-5-yl}propanoic acid] | 75 to 76 °C |
| COCCOc1ccc(CCCOc2cc(CCC(=O)O)n(C)n2)c(Oc2ncc(C(F)(F)F)cc2Cl)c1 [Example 148, 3-(3-{3-[2-{[3-chloro-5-(trifluoromethyl)pyridin-2-yl]oxy}-4-(2-methoxyethoxy)phenyl]propoxy}-1-methyl-1H-pyrazol-5-yl)propanoic acid] | 114 to 115 °C |
| CCn1cc(CC(=O)O)c(OCCCc2ccc(Cc3ccccn3)cc2OC(C)C)n1 [Example 126, (3-{3-[2-isopropoxy-4-(pyridin-2-ylmethyl)phenyl]propoxy}-1-ethyl-1H-pyrazol-4-yl)acetic acid] | 97 to 98 °C |
| CCCOc1cc(CCCOc2nn(Cc3ccccc3)cc2CC(=O)O)n(Cc2ccc(Cl)cc2Cl)n1 [Example 89, (1-benzyl-3-{3-[1-(2,4-dichlorobenzyl)-3-propoxy-1H-pyrazol-5-yl]propoxy}-1H-pyrazol-4-yl)acetic acid] | 132 to 134 °C |
| CC(C)c1ncc(CCCOc2nn(C)cc2CC(=O)O)c(Oc2ccc(Cl)cc2Cl)n1 [Example 128, (3-{3-[4-(2,4-dichlorophenoxy)-2-isopropylpyrimidin-5-yl]propoxy}-1-methyl-1H-pyrazol-4-yl)acetic acid] | 107 to 108 °C |
| COCCOc1ccc(CCCOc2cc(CCC(=O)O)n(C)n2)c(OCc2ccc(Cl)cc2Cl)c1 [Example 164, 3-(3-{3-[2-[(2,4-dichlorobenzyl)oxy]-4-(2-methoxyethoxy)phenyl]propoxy}-1-methyl-1H-pyrazol-5-yl)propanoic acid] | 128.5 to 129.5 °C |
| COc1cccc(CC(=O)O)c1OCc1cc(OCc2ccc3ccccc3n2)n(C(C)C)n1 [Example 9, (2-{[1-isopropyl-5-(quinolin-2-ylmethoxy)-1H-pyrazol-3-yl]methoxy}-3-methoxyphenyl)acetic acid] | 84 to 85 °C |
| CCCOc1cc(CCCOc2c(CC(=O)O)cccc2OC)n(Cc2ccc3ccccc3n2)n1 [Example 11, (3-methoxy-2-{3-[3-propoxy-1-(quinolin-2-ylmethyl)-1H-pyrazol-5-yl]propoxy}phenyl)acetic acid] | 97 to 98 °C |
| CC(C)c1nn(Cc2ccc(Cl)cc2Cl)cc1CCCOc1cc(CCC(=O)O)n(-c2ccccc2)n1 [Example 190, 3-(3-{3-[1-(2,4-dichlorobenzyl)-3-isopropyl-1H-pyrazol-4-yl]propoxy}-1-phenyl-1H-pyrazol-5-yl)propanoic acid] | 105 to 107 °C |
| Cc1cc(Cl)ccc1Cn1nc(OC(C)C)cc1CCCOc1ncccc1CC(=O)O [Example 74, (2-{3-[1-(4-chloro-2-methylbenzyl)-3-isopropoxy-1H-pyrazol-5-yl]propoxy}pyridin-3-yl)acetic acid] | 97 to 98 °C |
| CC(C)Oc1ccc(CCCCOc2cc(CCC(=O)O)n(C(C)C)n2)c(Oc2ncc(C(F)(F)F)cc2Cl)c1 [Example 159, 3-{3-[4-(2-{[3-chloro-5-(trifluoromethyl)pyridin-2-yl]oxy}-4-isopropoxyphenyl)butoxy]-1-isopropyl-1H-pyrazol-5-yl}propanoic acid] | 99.5 to 100.5 °C |
| CC(C)Oc1cc(Oc2ccc(C(F)(F)F)cn2)ccc1CCCOc1cc(CCC(=O)O)n(C)n1 [Example 152, 3-{3-[3-(2-isopropoxy-4-{[5-(trifluoromethyl)pyridin-2-yl]oxy}phenyl)propoxy]-1-methyl-1H-pyrazol-5-yl}propanoic acid] | 128 to 130 °C |
| CC(C)Cn1nc(OCCCc2ccc(OC(C)C)cc2OCc2ccc(Cl)cc2Cl)cc1CCC(=O)O [Example 162, 3-[3-(3-{2-[(2,4-dichlorobenzyl)oxy]-4-isopropoxyphenyl}propoxy) -1-isobutyl-1H-pyrazol-5-yl]propanoic acid] | 133 to 134 °C |
| CCn1nc(OCCCc2ccc(OC(C)C)cc2OCc2ccc(Cl)cc2Cl)cc1CCC(=O)O [Example 163, 3-[3-(3-{2-[(2,4-dichlorobenzyl)oxy]-4-isopropoxyphenyl}propoxy)-1-ethyl-1H-pyrazol-5-yl]propanoic acid] | 110 to 111 °C |
| CCOCc1cc(COc2cc(CCC(=O)O)n(-c3ccccc3)n2)cc(Oc2ncc(C(F)(F)F)cc2Cl)c1 [Example 199, 3-(3-{[3-{[3-chloro-5-(trifluoromethyl)pyridin-2-yl]oxy}-5-(ethoxymethyl)benzyl]oxy}-1-phenyl-1H-pyrazol-5-yl)propanoic acid] | 124 to 128 °C |
| CC(C)Oc1cc(Oc2ccc(C(F)(F)F)cn2)ccc1CCCOc1cc(CCC(=O)O)n(-c2ccccc2)n1 [Example 151, 3-{3-[3-(2-isopropoxy-4-{[5-(trifluoromethyl)pyridin-2-yl]oxy}phenyl)propoxy]-1-phenyl-1H-pyrazol-5-yl}propanoic acid] | 129.5 to 130.5 °C |
